Experimental data as given in US7084154B2, “2-(aminomethyl) arylamide analgesics” (Pharmacopeia Drug Disclovery, Inc., priority 2003, dated 2006).

System: male mice (strain ICR)
Experiment: Formalin paw licking test in mice
Format: in vivo
Conditions: 10 mg/kg i.v. in saline, 15 minutes before sub-plantar 3% formalin; compared to vehicle control
Description: The activity of the compounds in the in vitro screen was confirmed in vivo. Compound 103 was dissolved in saline and administrated to male mice (strain ICR) at 10 mg/kg i.v. in the tail vein. After 15 minutes, a 3% solution of formalin was administered sub-plantar and the time spent licking the paw was monitored in 5 minute segments over a 45 minute period. The experiment was conducted on 1–6 mice per group and compared to a control set (5 mice), which were given the vehicle alone prior to formalin injection. The first phase response was reduced by approximately 50%. The person of skill in the art would accept this test as predictive of therapeutic utility for analgesia.

Compound: CC1c2cc(O)ccc2CCN1Cc1ccccc1C(=O)NCC/C=C/c1ccccc1 (stereo not shown) [Compound 103, 2-(7-hydroxy-1-methyl-3,4-dihydro-1H-isoquinolin-2-ylmethyl)-N-(4-phenyl-but-3-enyl)-benzamide]
- reduction of first phase response (time spent licking the paw): approximately 50%
